Measurements from patent US20040039031A1, “Novel pharmaceutical compositions having an antidiabetic action, and process for their preparation” (priority 2000, published 2004).

Legend:
NIDD STZ rats = test: Streptozotocin-induced NIDD diabetic rats, eight-day oral treatment, plasma biological parameters; format: in vivo, male Wistar rats; conditions: for Glycaemia at D29 as percent of D21: values at D21 taken as 100%
Experimental: 40 male Wistar rats (Charles River, Saint Aubin les Elbeuf, France), with an average weight of 280 g, are used in this experiment. The animals are housed for one week in a standardised animal house, the following parameters of which are controlled: The forty rats are made diabetic by IP administration of 50 mg/kg of streptozotocin dissolved in physiological saline (a single administration). […] For each rat, 100 μl of blood are collected by venepuncture in a caudal vein, onto heparin, at time D0 (before the administration of STZ), at time D21 (21 days after STZ, before the treatments) and at D29 (after eight days of treatment). The samples are immediately centrifuged (10 minutes at 4000 rpm) and the plasma is separated from the blood cells. The samples are frozen until the time of determination of the biological parameters. After thawing the plasma samples, the above parameters are determined by enzymatic methods, using a COBAS automated machine (Roche). The glycaemia is measured by the hexokinase method; the cholesterol by the enzymatic final Randox point method; the triglycerides by the GPO-PAP method; the lactic acid by the lactic dehydrogenase method. The circulating insulin is measured by radioimmunoassay using CEA kits. The efficacy of the treatments is evaluated between […] by a t test adapted to paired series (for each rat, the value at D21 relative to D29 serves as the control).

NIDD rats, of STZ type = test: Earlier study of glibenclamide 0.5 mg/kg daily in NIDD rats of STZ type; format: in vivo; conditions: daily dose of 0.5 mg/kg
[1] = metformin 30 mg/kg/day group, D0 (before STZ)
[2] = metformin 30 mg/kg/day group, D21 (21 days after STZ, before treatment)
[3] = metformin (hydrochloride) 30 mg/kg/day orally in two doses, D29 (after eight days of treatment)
[4] = glibenclamide 1 mg/kg/day group, D0 (before STZ)
[5] = glibenclamide 1 mg/kg/day group, D21 (21 days after STZ, before treatment)
[6] = glibenclamide 1 mg/kg/day orally in two doses, D29 (after eight days of treatment)
[7] = glibenclamide 2 mg/kg/day group, D0 (before STZ)
[8] = glibenclamide 2 mg/kg/day group, D21 (21 days after STZ, before treatment)
[9] = glibenclamide 2 mg/kg/day orally in two doses, D29 (after eight days of treatment)
[10] = glibenclamide higher dose 2 mg/kg/day, D29 vs D21
[11] = glibenclamide low dose 1 mg/kg/day, D29 vs D21

## CN(C)C(=N)N=C(N)N [Metformin, metformin]
NIDD STZ rats; Metformin 30 mg/kg/day
  glycaemia at D29 (% of D21): 86%
  Glycaemia at D29 as percent of D21: 86.03 +/− 4.29%
NIDD STZ rats; [1]
  Cholesterol: 1.00 +/− 0.07 mM/l
  Glycaemia: 6.38 +/− 0.23 mM/l
  Insulinaemia: 12.8 +/− 0.2 μU/ml
  Lactates: 2.47 +/− 0.15 mM/l
  Triglycerides: 0.96 +/− 0.12 mM/l
NIDD STZ rats; [2]
  Cholesterol: 1.57 +/− 0.08 mM/l
  Glycaemia: 14.41 +/− 0.36 mM/l
  Lactates: 2.53 +/− 0.09 mM/l
  Triglycerides: 1.05 +/− 0.03 mM/l
NIDD STZ rats; metformin 30 mg/kg/day, eight days
  Effect on lactates: tendency to increase
NIDD STZ rats; [3]
  Cholesterol: 1.48 +/− 0.06 mM/l
  Glycaemia: **12.35 +/− 0.49 mM/l
  Insulinaemia: 17.3 +/− 0.7 μU/ml
  Lactates: *2.70 +/− 0.11 mM/l
  Triglycerides: 0.96 +/− 0.05 mM/l
NIDD STZ rats; metformin alone 30 mg/kg/day, D29 vs D21
  Decrease in glycaemia: 13.7%

## glibenclamide
NIDD STZ rats; Glibenclamide 2 mg/kg/day
  Glycaemia at D29 as percent of D21: 93.49 +/− 1.15%
NIDD STZ rats; [4]
  Cholesterol: 1.03 +/− 0.04 mM/l
  Glycaemia: 6.39 +/− 0.17 mM/l
  Insulinaemia: 12.8 +/− 0.8 μU/ml
  Lactates: 2.19 +/− 0.07 mM/l
  Triglycerides: 0.87 +/− 0.05 mM/l
NIDD STZ rats; [5]
  Cholesterol: 1.65 +/− 0.08 mM/l
  Glycaemia: 14.22 +/− 0.65 mM/l
  Insulinaemia: 16.7 +/− 0.8 μU/ml
  Lactates: 2.59 +/− 0.10 mM/l
  Triglycerides: 1.04 +/− 0.10 mM/l
NIDD STZ rats; [6]
  Cholesterol: 1.42 +/− 0.08 mM/l
  Glycaemia: 14.66 +/− 0.47 mM/l
  Insulinaemia: **1.92 +/− 0.8 μU/ml
  Lactates: **1.33 +/− 0.15 mM/l
  Triglycerides: 1.04 +/− 0.10 mM/l
NIDD STZ rats; [7]
  Cholesterol: 1.04 +/− 0.02 mM/l
  Glycaemia: 6.49 +/− 0.13 mM/l
  Insulinaemia: 12.7 +/− 0.6 μU/ml
  Lactates: 2.33 +/− 0.12 mM/l
  Triglycerides: 0.88 +/− 0.06 mM/l
NIDD STZ rats; [8]
  Cholesterol: 1.49 +/− 0.04 mM/l
  Glycaemia: 14.66 +/− 0.73 mM/l
  Insulinaemia: 17.0 +/− 1.0 μU/ml
  Lactates: 2.67 +/− 0.17 mM/l
  Triglycerides: 1.01 +/− 0.05 mM/l
NIDD STZ rats; [9]
  Cholesterol: 1.52 +/− 0.06 mM/l
  Glycaemia: **13.70 +/− 0.66 mM/l
  Insulinaemia: **21.0 +/− 1.4 μU/ml
  Lactates: **1.38 +/− 0.13 mM/l
  Triglycerides: 0.93 +/− 0.04 mM/l
NIDD STZ rats; glibenclamide 2 mg/kg/day orally in two doses, D29 (after eight days of treatment), listed as glibenclamide
  Glycaemia: 13.70 +/− 0.66 mM/l
NIDD STZ rats; glibenclamide alone 2 mg/kg/day, D29 vs D21
  Decrease in glycaemia: 6.51%
NIDD STZ rats; [10]
  Effect on insulinaemia: still higher on average
  Effect on lactate levels: significantly reduced
NIDD STZ rats; glibenclamide higher dose 2 mg/kg/day, D29 vs D21, paired t test
  Effect on glycaemia: significantly decreases
NIDD STZ rats; [11]
  Effect on glycaemia: does not modify
  Effect on insulinaemia: significant increase
  Effect on level of circulating lactates: decrease
NIDD STZ rats; orally in two doses, eight days, NIDD STZ rats
  Minimum active dose: 2 mg/kg/day
NIDD rats, of STZ type
  Activity of daily dose: inactive
